± gives the expanded uncertainty stated by the source.
How the values were obtained:
[1] = Liquid
[2] = xn = mol fraction of the nth substance listed; conditions: Liquid, Falling or rolling sphere viscometry, x1 = 1

CCO [ethanol]
viscosity [mPa·s], [1], Falling or rolling sphere viscometry
Conditions	100 kPa	20000 kPa	40000 kPa	60000 kPa	80000 kPa	100000 kPa
293.15 K	1.194 ± 0.026	1.344 ± 0.029	1.494 ± 0.032	1.647 ± 0.035	1.797 ± 0.039	1.955 ± 0.042
313.15 K	0.826 ± 0.018	0.948 ± 0.02	1.059 ± 0.023	1.171 ± 0.025	1.282 ± 0.028	1.392 ± 0.03
333.15 K	0.59 ± 0.013	0.683 ± 0.015	0.769 ± 0.017	0.851 ± 0.018	0.934 ± 0.02	1.015 ± 0.022
353.15 K	–	0.51 ± 0.011	0.574 ± 0.012	0.636 ± 0.014	0.699 ± 0.015	0.763 ± 0.016

CCO [ethanol] + Cc1ccccc1
viscosity [mPa·s], [2]
Conditions	100 kPa	20000 kPa	40000 kPa	60000 kPa	80000 kPa	100000 kPa
293.15 K	1.194 ± 0.026	1.344 ± 0.029	1.494 ± 0.032	1.647 ± 0.035	1.797 ± 0.039	1.955 ± 0.042
313.15 K	0.826 ± 0.018	0.948 ± 0.02	1.059 ± 0.023	1.171 ± 0.025	1.282 ± 0.028	1.392 ± 0.03
333.15 K	0.59 ± 0.013	0.683 ± 0.015	0.769 ± 0.017	0.851 ± 0.018	0.934 ± 0.02	1.015 ± 0.022
353.15 K	–	0.51 ± 0.011	0.574 ± 0.012	0.636 ± 0.014	0.699 ± 0.015	0.763 ± 0.016

CO [methanol]
viscosity [mPa·s], [1], Capillary tube (Ostwald / Ubbelohde) method
Conditions	100 kPa	20000 kPa	40000 kPa	60000 kPa	80000 kPa	100000 kPa
293.15 K	0.583 ± 0.012	0.646 ± 0.014	0.706 ± 0.015	0.767 ± 0.016	0.83 ± 0.017	0.894 ± 0.019
313.15 K	0.445 ± 0.009	0.497 ± 0.011	0.546 ± 0.012	0.593 ± 0.013	0.64 ± 0.013	0.683 ± 0.014
333.15 K	0.343 ± 0.007	0.386 ± 0.008	0.424 ± 0.009	0.462 ± 0.01	0.501 ± 0.011	0.543 ± 0.011
353.15 K	–	0.303 ± 0.007	0.337 ± 0.007	0.368 ± 0.008	0.4 ± 0.009	0.433 ± 0.009

— the NIST ThermoML archive (doi:10.1007/s10765-005-8089-2)
